Where two headings read alike, the source gives them in different places.
What was measured:
K-562 = assay: Inhibition of cells growth by colorimetric (SRB) assay, K-562
Method in brief: (§1)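 Read-out is sulforhodamine B protein stain (OD 490 nm) after cold TCA fixation, following 48 h continuous exposure to samples spanning 10 to 10^−8 μg/ml.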

A-549 = assay: Inhibition of cells growth by colorimetric (SRB) assay, A-549; conditions: for GI50 / CC50: Homo sapiens, A549, 48 h; for GI50: read-out: GI50 A-549, SRB assay, 48 hours exposure; for CC50: read-out: LC50 A-549, SRB assay, 48 hours exposure; for TGI A-549: SRB assay, 48 hours exposure
Method in brief: as §1

SK-MEL-28 = assay: Inhibition of cells growth by colorimetric (SRB) assay, SK-MEL-28; conditions: for GI50 / CC50: Homo sapiens, SK-MEL-28, 48 h; for GI50: read-out: GI50 MEL-28, SRB assay, 48 hours exposure; for CC50: read-out: LC50 MEL-28, SRB assay, 48 hours exposure; for TGI MEL-28: SRB assay, 48 hours exposure
Method in brief: as §1

HT-29 = assay: Inhibition of cells growth by colorimetric (SRB) assay, HT-29; conditions: for GI50: read-out: GI50 HT-29, SRB assay, 48 hours exposure; for TGI HT-29: SRB assay, 48 hours exposure
Method in brief: as §1

LoVo = assay: Inhibition of cells growth by colorimetric (SRB) assay, LoVo; conditions: for GI50 / CC50: Homo sapiens, LoVo, 48 h; for GI50: read-out: GI50 LOVO, SRB assay, 48 hours exposure; for CC50: read-out: LC50 LOVO, SRB assay, 48 hours exposure; for TGI LOVO: SRB assay, 48 hours exposure
Method in brief: as §1

LoVo-Dox = assay: Inhibition of cells growth by colorimetric (SRB) assay, LoVo-Dox; conditions: for GI50 / CC50: Homo sapiens, 48 h; for GI50: read-out: GI50 LOVO-DOX, SRB assay, 48 hours exposure; for CC50: read-out: LC50 LOVO-DOX, SRB assay, 48 hours exposure; for TGI LOVO-DOX: SRB assay, 48 hours exposure
Method in brief: as §1

DU-145 = assay: Inhibition of cells growth by colorimetric (SRB) assay, DU-145; conditions: for GI50: read-out: GI50 DU-145, SRB assay, 48 hours exposure
Method in brief: as §1

LNCaP = assay: Inhibition of cells growth by colorimetric (SRB) assay, LNCaP
Method in brief: as §1

SK-BR-3 = assay: Inhibition of cells growth by colorimetric (SRB) assay, SK-BR-3; conditions: for GI50 / CC50: Homo sapiens, SK-BR-3, 48 h; for GI50: read-out: GI50 SK-BR-3, SRB assay, 48 hours exposure; for CC50: read-out: LC50 SK-BR-3, SRB assay, 48 hours exposure; for TGI SK-BR-3: SRB assay, 48 hours exposure
Method in brief: as §1

IGROV-1 = assay: Inhibition of cells growth by colorimetric (SRB) assay, IGROV-1; conditions: for GI50 / CC50: Homo sapiens, IGROV-1, 48 h; for GI50: read-out: GI50 IGROV, SRB assay, 48 hours exposure; for CC50: read-out: LC50 IGROV, SRB assay, 48 hours exposure; for TGI IGROV: SRB assay, 48 hours exposure
Method in brief: as §1

IGROV-ET = assay: Inhibition of cells growth by colorimetric (SRB) assay, IGROV-ET; conditions: for CC50: read-out: LC50 IGROV-ET, SRB assay, 48 hours exposure
Method in brief: as §1

SK-OV-3 = assay: Inhibition of cells growth by colorimetric (SRB) assay, SK-OV-3
Method in brief: as §1

PANC-1 = assay: Inhibition of cells growth by colorimetric (SRB) assay, PANC-1; conditions: for GI50 / CC50: Homo sapiens, PANC-1, 48 h; for GI50: read-out: GI50 PANC-1, SRB assay, 48 hours exposure; for CC50: read-out: LC50 PANC-1, SRB assay, 48 hours exposure; for TGI PANC-1: SRB assay, 48 hours exposure
Method in brief: as §1

[1] = Inhibition of cells growth by colorimetric (SRB) assay, HMEC1; conditions: human, HMEC1 cells, LC50 H-MEC-1, SRB assay, 48 hours exposure
HMEC1 = assay: as above; conditions: for GI50: Homo sapiens, HMEC-1, 48 h, read-out: GI50 H-MEC-1, SRB assay, 48 hours exposure; for TGI H-MEC-1: SRB assay, 48 hours exposure, in M (unit assumed)

With `CS(=O)(=O)c1nccc(-c2c3c(Cl)ccnc3n3c(N)nccc23)n1` [Compound 111] the GI50 (K-562; Homo sapiens, K562, 48 h, read-out: GI50 K-562, SRB assay, 48 hours exposure) was 7.26 µM, the CC50 (K-562; Homo sapiens, K562, 48 h, read-out: LC50 K-562, SRB assay, 48 hours exposure) was 26.7 µM and the “TGI K-562” value (K-562; SRB assay, 48 hours exposure) was 1.59E−05. The GI50 (A-549) was 4.35 µM, the CC50 (A-549) was 26.7 µM and the “TGI A-549” value (A-549) was 1.30E−05. The GI50 (SK-MEL-28) was 1.25 µM, the CC50 (SK-MEL-28) was 15.7 µM and the “TGI MEL-28” value (SK-MEL-28) was 5.15E−06. For the same compound, the GI50 (HT-29; Homo sapiens, HT-29, 48 h) was 5.34 µM, the CC50 (HT-29; Homo sapiens, HT-29, 48 h, read-out: LC50 HT-29, SRB assay, 48 hours exposure) was 26.7 µM and the “TGI HT-29” value (HT-29) was 1.66E−05. The GI50 (LoVo) was 1.54 µM, the CC50 (LoVo) was 26.7 µM and the “TGI LOVO” value (LoVo) was 6.99E−06. For the same compound, the GI50 (LoVo-Dox) was 1.51 µM, the CC50 (LoVo-Dox) was 26.7 µM and the “TGI LOVO-DOX” value (LoVo-Dox) was 7.07E−06. The GI50 (DU-145; Homo sapiens, DU-145, 48 h) was 1.94 µM, the CC50 (DU-145; Homo sapiens, DU-145, 48 h, read-out: LC50 DU-145, SRB assay, 48 hours exposure) was 16.8 µM and the “TGI DU-145” value (DU-145; SRB assay, 48 hours exposure) was 6.40E−06. For the same compound, the GI50 (LNCaP; Homo sapiens, LNCaP, 48 h, read-out: GI50 LN-caP, SRB assay, 48 hours exposure) was 4.3 µM, the CC50 (LNCaP; Homo sapiens, LNCaP, 48 h, read-out: LC50 LN-caP, SRB assay, 48 hours exposure) was 19.9 µM and the “TGI LN-caP” value (LNCaP; SRB assay, 48 hours exposure) was 9.26E−06. The GI50 (SK-BR-3) was 4.35 µM, the CC50 (SK-BR-3) was 21.3 µM and the “TGI SK-BR-3” value (SK-BR-3) was 9.69E−06. The GI50 (IGROV-1) was 3.55 µM, the CC50 (IGROV-1) was 25.9 µM and the “TGI IGROV” value (IGROV-1) was 9.60E−06. The GI50 (IGROV-ET; Homo sapiens, 48 h, read-out: GI50 IGROV-ET, SRB assay, 48 hours exposure) was 3.87 µM, the CC50 (IGROV-ET; Homo sapiens, 48 h) was 26.7 µM and the “TGI IGROV-ET” value (IGROV-ET; SRB assay, 48 hours exposure) was 1.10E−05. For the same compound, the GI50 (SK-OV-3; Homo sapiens, SK-OV-3, 48 h, read-out: GI50 SKOV-3, SRB assay, 48 hours exposure) was 2.05 µM, the CC50 (SK-OV-3; Homo sapiens, SK-OV-3, 48 h, read-out: LC50 SKOV-3, SRB assay, 48 hours exposure) was 21.8 µM and the “TGI SKOV-3” value (SK-OV-3; SRB assay, 48 hours exposure) was 6.88E−06. The GI50 (PANC-1) was 3.07 µM, the CC50 (PANC-1) was 24.6 µM and the “TGI PANC-1” value (PANC-1) was 8.70E−06. For the same compound, the CC50 at 48 h [1] was 0.603 µM, the GI50 (HMEC1) was 0.00108 µM and the “TGI H-MEC-1” value (HMEC1) was 1.53E−08.
With `CCOc1nccc(-c2c3cccnc3n3c(N)nccc23)n1.Cl` [Compound 82] the “TGI K-562” value (K-562; SRB assay, 48 hours exposure) was 7.32E−07, the GI50 (K-562; read-out: GI50 K-562, SRB assay, 48 hours exposure) was 0.531 µM and the CC50 (K-562; read-out: LC50 K-562, SRB assay, 48 hours exposure) was 1.01 µM. The GI50 (A-549) was 29.2 µM, the CC50 (A-549) was 29.2 µM and the “TGI A-549” value (A-549) was 2.92E−05. The GI50 (SK-MEL-28) was 0.365 µM, the CC50 (SK-MEL-28) was 1.73 µM and the “TGI MEL-28” value (SK-MEL-28) was 7.93E−07. For the same compound, the GI50 (HT-29; Homo sapiens, HT-29, 48 h) was 0.712 µM, the “TGI HT-29” value (HT-29) was 2.92E−06 and the GI50 (LoVo) was 0.665 µM. The CC50 (LoVo) was 29.2 µM, the “TGI LOVO” value (LoVo) was 2.15E−06 and the GI50 (LoVo-Dox) was 0.7 µM. For the same compound, the CC50 (LoVo-Dox) was 12.1 µM, the “TGI LOVO-DOX” value (LoVo-Dox) was 2.72E−06 and the GI50 (DU-145; Homo sapiens, DU-145, 48 h) was 0.715 µM. The “TGI DU-145” value (DU-145; SRB assay, 48 hours exposure) was 1.51E−06, the CC50 (DU-145; read-out: LC50 DU-145, SRB assay, 48 hours exposure) was 2.92 µM and the “TGI LN-caP” value (LNCaP; SRB assay, 48 hours exposure) was 1.57E−06. It also gave a GI50 (LNCaP; read-out: GI50 LN-caP, SRB assay, 48 hours exposure) of 0.887 µM, a CC50 (LNCaP; read-out: LC50 LN-caP, SRB assay, 48 hours exposure) of 2.28 µM and a GI50 (SK-BR-3) of 0.56 µM. The CC50 (SK-BR-3) was 2.26 µM, the “TGI SK-BR-3” value (SK-BR-3) was 1.12E−06 and the GI50 (IGROV-1) was 0.971 µM. The CC50 (IGROV-1) was 29.2 µM, the “TGI IGROV” value (IGROV-1) was 1.76E−06 and the CC50 (IGROV-ET; Homo sapiens, 48 h) was 29.2 µM. The “TGI IGROV-ET” value (IGROV-ET; SRB assay, 48 hours exposure) was 2.32E−07, the GI50 (IGROV-ET; read-out: GI50 IGROV-ET, SRB assay, 48 hours exposure) was 0.089 µM and the “TGI SKOV-3” value (SK-OV-3; SRB assay, 48 hours exposure) was 2.91E−06. For the same compound, the GI50 (SK-OV-3; read-out: GI50 SKOV-3, SRB assay, 48 hours exposure) was 0.992 µM, the GI50 (PANC-1) was 1.03 µM and the CC50 (PANC-1) was 29.2 µM. For the same compound, the “TGI PANC-1” value (PANC-1) was 6.77E−06, the CC50 at 48 h [1] was 1.55 µM and the GI50 (HMEC1) was 0.341 µM. For the same compound, the “TGI H-MEC-1” value (HMEC1) was 7.29E−07.

— patent US7772241B2, “Variolin derivatives and their use as antitumor agents” (Pharma Mar S.A., priority 2001, dated 2010)
